This note sets out measurements from patent US9302991B2, “Arylamide derivatives as TTX-S blockers” (RaQualia Pharma Inc., priority 2010, dated 2016).

For the assay, the target named is T1, human Nav1.7 channels (Homo sapiens, UniProt Q15858).
T1 construct: expressed in transfected cells; host or cells: CHO
As to the kind of experiment: FRET assay, human Nav1.7 (EFS on FDSS). The format is cell-based. The settings on record: CHO cells expressing human Nav1.7, read-out: IC50 against Nav1.7. On the procedure: The inhibitory activities of compounds against voltage gated sodium channels are determined by methodology well known in the art.
The ability of the aryl substituted carboxamide derivatives of the formula (I) to inhibit the NaV1.3, Nav1.7 and Nav1.5 channels is measured by Fluorescence Resonance Energy Transfer (FRET) assay and electrophysiology assay described below.
This screen is used to determine the effects of compounds on human Nav1.3, human Nav1.7, and human Nav1.5 channels, utilising electrical field stimulation (EFS) system in 96-well plate format on FDSS (Hamamatsu Photonics) platform. The change of membrane potential is monitored with FRET dye pair, oxonol (DiSBAC2(3)) and coumarin (CC2-DMPE).
CHO cells expressing human Nav1.7 channels are grown in T225 flasks, in a 5% CO2 humidified incubator to about 80% confluence. Media composition consists of HAM/F12 with Glutamax 1.10% FCS, 100 units/mL Penicillin and 100 microgram/mL Hygromycin.
Protocol: • Seed each cell lines (1×10^5 cells/well) into poly-D-lysine coated 96-well plates prior to experimentation. • Incubate at 37° C. in 5% CO2 for 24 hours. • Wash each well with assay buffer (140 mM NaCl, 4.5 mM KCl, 10 mM D-Glucose, 2 mM CaCl2, 1 mM MgCl2, 10 mM HEPES, pH 7.4 adjusted with NaOH) twice. • Add 1st loading solution containing 10 microM CC2-DMPE and 0.06% Pluronic F-127 in assay buffer. • Incubate the plate at room temperature in dark for 1 hour. • Remove 1st loading solution and added 2nd loading solution containing 15 microM DiSBAC2(3), 0.555 mM VABSC-1 and 0.004% Pluronic F-127 in assay buffer. • Place the plate under the dark at room temperature for 25 minutes. • Add compound solutions into the assay plate. • Set the assay plate in FDSS and placed an EFS device on the plate. • Measure EFS-induced fluorescent response by FDSS.
The data are analyzed and reported as normalized ratios of intensities measured at […]. The process of calculating these ratios is performed as follows:
This analysis is performed using a computerized specific program designed for FDSS generated data. Fluorescence ratio values are plotted using XLfit to determine an IC50 value for each compound.

Molecules are shown by their SMILES.

A word on the IC50: it is the concentration needed to halve the response being measured.

T1 sequence (Q15858 whole entry): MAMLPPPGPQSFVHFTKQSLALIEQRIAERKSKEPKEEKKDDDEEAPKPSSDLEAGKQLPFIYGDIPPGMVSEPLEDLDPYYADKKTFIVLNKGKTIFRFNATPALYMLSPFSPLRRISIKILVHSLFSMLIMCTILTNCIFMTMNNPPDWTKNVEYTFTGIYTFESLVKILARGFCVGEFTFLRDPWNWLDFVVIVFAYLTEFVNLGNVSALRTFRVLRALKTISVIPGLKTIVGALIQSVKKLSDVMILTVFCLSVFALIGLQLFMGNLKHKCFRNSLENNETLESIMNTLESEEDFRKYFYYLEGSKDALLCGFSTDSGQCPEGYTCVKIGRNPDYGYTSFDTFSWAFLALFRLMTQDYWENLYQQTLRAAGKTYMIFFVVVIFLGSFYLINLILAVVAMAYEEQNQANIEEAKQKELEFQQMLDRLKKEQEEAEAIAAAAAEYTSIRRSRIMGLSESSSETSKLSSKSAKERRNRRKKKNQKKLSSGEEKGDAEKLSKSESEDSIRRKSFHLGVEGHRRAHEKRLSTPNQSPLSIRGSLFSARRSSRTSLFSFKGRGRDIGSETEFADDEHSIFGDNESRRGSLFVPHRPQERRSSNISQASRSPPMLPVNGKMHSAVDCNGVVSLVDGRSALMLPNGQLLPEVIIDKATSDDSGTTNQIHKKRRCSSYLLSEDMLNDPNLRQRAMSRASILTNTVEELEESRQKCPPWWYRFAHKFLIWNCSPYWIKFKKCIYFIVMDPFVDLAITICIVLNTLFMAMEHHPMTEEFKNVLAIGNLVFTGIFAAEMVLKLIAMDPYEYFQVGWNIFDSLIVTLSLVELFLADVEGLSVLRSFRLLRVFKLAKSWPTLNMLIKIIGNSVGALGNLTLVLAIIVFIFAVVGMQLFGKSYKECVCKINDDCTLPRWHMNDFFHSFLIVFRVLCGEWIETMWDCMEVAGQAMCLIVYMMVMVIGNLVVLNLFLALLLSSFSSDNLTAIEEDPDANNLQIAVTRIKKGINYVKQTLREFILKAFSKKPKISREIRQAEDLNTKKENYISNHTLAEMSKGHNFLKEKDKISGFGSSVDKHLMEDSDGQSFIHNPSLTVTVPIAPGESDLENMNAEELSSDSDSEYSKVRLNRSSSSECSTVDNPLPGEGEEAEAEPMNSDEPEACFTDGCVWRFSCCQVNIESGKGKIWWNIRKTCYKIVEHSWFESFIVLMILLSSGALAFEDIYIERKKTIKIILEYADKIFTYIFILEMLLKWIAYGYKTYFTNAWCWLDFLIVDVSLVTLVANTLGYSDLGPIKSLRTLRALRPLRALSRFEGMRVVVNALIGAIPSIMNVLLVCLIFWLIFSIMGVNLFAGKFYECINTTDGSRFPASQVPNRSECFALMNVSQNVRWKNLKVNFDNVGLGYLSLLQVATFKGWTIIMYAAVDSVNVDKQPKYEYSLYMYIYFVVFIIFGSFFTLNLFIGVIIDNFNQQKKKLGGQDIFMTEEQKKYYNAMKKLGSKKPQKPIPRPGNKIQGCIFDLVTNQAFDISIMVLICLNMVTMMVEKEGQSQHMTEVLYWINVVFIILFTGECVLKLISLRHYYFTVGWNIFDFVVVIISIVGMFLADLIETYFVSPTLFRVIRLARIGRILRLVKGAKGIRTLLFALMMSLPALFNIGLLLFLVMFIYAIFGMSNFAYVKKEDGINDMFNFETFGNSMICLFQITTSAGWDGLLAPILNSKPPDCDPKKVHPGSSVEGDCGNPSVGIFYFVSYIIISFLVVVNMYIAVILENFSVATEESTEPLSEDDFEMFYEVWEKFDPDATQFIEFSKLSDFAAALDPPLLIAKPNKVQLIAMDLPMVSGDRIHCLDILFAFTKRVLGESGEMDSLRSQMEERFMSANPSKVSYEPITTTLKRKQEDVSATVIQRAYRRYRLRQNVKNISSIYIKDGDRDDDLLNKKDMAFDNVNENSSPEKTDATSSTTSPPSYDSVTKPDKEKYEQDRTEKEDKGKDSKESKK

For `CC(=O)Nc1cc(C(=O)NC(C)c2cnc(OCC(F)F)c(C)c2)ccn1` (single isomer, unassigned) [Example 551, 2-acetamido-N-(1-(6-(2,2-difluoroethoxy)-5-methylpyridin-3-yl)ethyl)isonicotinamide], the IC50 is less than 1000 nM.

For the molecule `CCC(=O)Nc1cc(C(=O)NC(C)c2cnc(OCC(F)F)c(C)c2)ccn1` (single isomer, unassigned) [Example 552, N-(1-(6-(2,2-difluoroethoxy)-5-methylpyridin-3-yl)ethyl)-2-propionamidoisonicotinamide], the IC50 is less than 1000 nM.

Regarding `Cc1cc(C(C)NC(=O)c2ccnc(NC(=O)C3CC3)c2)cnc1OCC(F)F` (single isomer, unassigned) [Example 553, 2-(cyclopropanecarboxamido)-N-(1-(6-(2,2-difluoroethoxy)-5-methylpyridin-3-yl)ethyl)isonicotinamide], the IC50 was less than 1000 nM.

For `CC(=O)Nc1cc(C(=O)NC(C)c2cnc(OCC(F)F)c(C)c2)cc(C)n1` (single isomer, unassigned) [Example 556, 2-acetamido-N-(1-(6-(2,2-difluoroethoxy)-5-methylpyridin-3-yl)ethyl)-6-methylisonicotinamide], the IC50 is less than 1000 nM.

Regarding `Cc1cc(C(=O)NC(C)c2cnc(OCC(F)F)c(C)c2)nc(NC(=O)C2CC2)n1` (single isomer, unassigned) [Example 559, 2-(cyclopropanecarboxamido)-N-(1-(6-(2,2-difluoroethoxy)-5-methylpyridin-3-yl)ethyl)6-methylpyrimidine-4-carboxamide], the IC50 is less than 1000 nM.

As to `CC(C)C(=O)Nc1cc(C(=O)NC(C)c2cccc(OCC(F)(F)F)c2)ccn1` (single isomer, unassigned) [Example 561, 2-isobutyramido-N-(1-(3-(2,2,2-trifluoroethoxy)phenyl)ethyl)isonicotinamide], the IC50 was less than 1000 nM.

Turning to `CC(C)C(=O)Nc1cc(C(=O)NC(C)c2ccc(OCC(F)(F)F)cc2)ccn1` (single isomer, unassigned) [Example 562, 2-isobutyramido-N-(1-(4-(2,2,2-trifluoroethoxy)phenyl)ethyl)isonicotinamide], the IC50 was less than 1000 nM.

In the case of `CCCC(=O)Nc1cc(C(=O)NC(C)c2cnc(OCC(F)F)c(C)c2)ccn1` (single isomer, unassigned) [Example 633, 2-butyramido-N-(1-(6-(2,2-difluoroethoxy)-5-methylpyridin-3-yl)ethyl)isonicotinamide], the IC50 was less than 1000 nM.

With `CCC(=O)Nc1cc(C(=O)NC(C)c2ccc(OCC(F)(F)C(F)F)nc2)ccn1` (single isomer, unassigned) [Example 653, 2-propionamido-N-(1-(6-(2,2,3,3-tetrafluoropropoxy)pyridin-3-yl)ethyl)isonicotinamide], the IC50 was less than 1000 nM.

Consider `CC(C)C(=O)Nc1cc(C(=O)NC(C)c2ccc(OCC(F)(F)C(F)F)nc2)ccn1` (single isomer, unassigned) [Example 654, 2-isobutyramido-N-(1-(6-(2,2,3,3-tetrafluoropropoxy)pyridin-3-yl)ethyl)isonicotinamide], for which the IC50 is less than 1000 nM.

Regarding `Cc1cc(C(=O)NC(C)c2ccc(OCC(F)(F)C(F)F)nc2)cc(NC(=O)C(C)C)n1` (single isomer, unassigned) [Example 657, 2-isobutyramido-6-methyl-N-(1-(6-(2,2,3,3-tetrafluoropropoxy)pyridin-3-yl)ethyl)isonicotinamide], the IC50 was less than 1000 nM.

Take `CCC(=O)Nc1cc(C(=O)NC(C)c2ccc(OCC(F)(F)F)c(Cl)c2)ccn1` (single isomer, unassigned) [Example 673, N-(1-(3-chloro-4-(2,2,2-trifluoroethoxy)phenyl)ethyl)-2-propionamidoisonicotinamide]: the IC50 is less than 1000 nM.

For `CC(NC(=O)c1ccnc(NC(=O)C2CC2)c1)c1ccc(OCC(F)(F)F)c(Cl)c1` (single isomer, unassigned) [Example 675, N-(1-(3-chloro-4-(2,2,2-trifluoroethoxy)phenyl)ethyl)-2-(cyclopropanecarboxamido)isonicotinamide], the IC50 is less than 1000 nM.

With `CC(=O)Nc1cc(C(=O)NC(C)c2ccc(OCC(F)(F)F)c(Cl)c2)cc(C)n1` (single isomer, unassigned) [Example 676, 2-acetamido-N-(1-(3-chloro-4-(2,2,2-trifluoroethoxy)phenyl)ethyl)-6-methylisonicotinamide], the IC50 was less than 1000 nM.

Turning to `Cc1cc(C(=O)NC(C)c2ccc(OCC(F)(F)F)c(Cl)c2)cc(NC(=O)C(C)C)n1` (single isomer, unassigned) [Example 678, N-(1-(3-chloro-4-(2,2,2-trifluoroethoxy)phenyl)ethyl)-2-isobutyramido-6-methylisonicotinamide], the IC50 was less than 1000 nM.

In the case of `Cc1cc(C(=O)NC(C)c2ccc(OCC(F)(F)F)c(Cl)c2)nc(NC(=O)C2CC2)n1` (single isomer, unassigned) [Example 679, N-(1-(3-chloro-4-(2,2,2-trifluoroethoxy)phenyl)ethyl)-2-(cyclopropanecarboxamido)-6-methylpyrimidine-4-carboxamide], the IC50 is less than 1000 nM.

Regarding `CC(NC(=O)c1ccnc(NC(=O)C2CC2)c1)c1ccc(OCC(F)(F)C(F)(F)F)nc1` (single isomer, unassigned) [Example 689, 2-(cyclopropanecarboxamido)-N-(1-(6-(2,2,3,3,3-pentafluoropropoxy)pyridin-3-yl)ethyl)isonicotinamide], the IC50 is less than 1000 nM.

As for `Cc1cc(C(=O)NC(C)c2ccc(OCC(F)(F)C(F)(F)F)nc2)cc(NC(=O)C(C)C)n1` (single isomer, unassigned) [Example 693, 2-isobutyramido-6-methyl-N-(1-(6-(2,2,3,3,3-pentafluoropropoxy)pyridin-3-yl)ethyl)isonicotinamide], the IC50 was less than 1000 nM.

As for `CCC(=O)Nc1cc(C(=O)NC(C)c2ccc(OCC(C)(F)F)nc2)ccn1` (single isomer, unassigned) [Example 781, N-(1-(6-(2,2-difluoropropoxy)pyridin-3-yl)ethyl)-2-propionamidoisonicotinamide], the concentration for half-maximal inhibition (IC50) was less than 1000 nM.

For `CC(NC(=O)c1ccnc(NC(=O)C2CC2)c1)c1ccc(OCC(C)(F)F)nc1` (single isomer, unassigned) [Example 782, 2-(cyclopropanecarboxamido)-N-(1-(6-(2,2-difluoropropoxy)pyridin-3-yl)ethyl)isonicotinamide], the IC50 was less than 1000 nM.

Consider `CC(=O)Nc1cc(C(=O)NC(C)c2ccc(OCC(C)(F)F)nc2)cc(C)n1` (single isomer, unassigned) [Example 783, 2-acetamido-N-(1-(6-(2,2-difluoropropoxy)pyridin-3-yl)ethyl)-6-methylisonicotinamide], for which the IC50 was less than 1000 nM.

As for `CC(C)C(=O)Nc1cc(C(=O)NC(C)c2ccc(OCC(C)(F)F)nc2)ccn1` (single isomer, unassigned) [Example 785, N-(1-(6-(2,2-difluoropropoxy)pyridin-3-yl)ethyl)-2-isobutyramidoisonicotinamide], the IC50 is less than 1000 nM.

Turning to `CCCC(=O)Nc1cc(C(=O)NC(C)c2ccc(OCC(C)(F)F)nc2)ccn1` (single isomer, unassigned) [Example 787, 2-butyramido-N-(1-(6-(2,2-difluoropropoxy)pyridin-3-yl)ethyl)isonicotinamide], the IC50 is less than 1000 nM.
